The values that follow are results of earlier work, collected in PMC4950319, “Kinetic and structural characterization of amyloid‐β peptide hydrolysis by human angiotensin‐1‐converting enzyme” (The Febs Journal, 2016).

This series relates to ACE. The following applies: recombinant truncated domains only; cited from earlier work. The text has this: Based on our results and the synergistic effect that the C‐domain exerts on the N‐domain, the C‐domain activity is likely to be important in vivo. […] This observation is supported by the architecture of the central cavity found in tACE (human testis ACE, C‐domain equivalent) crystal structure and the chloride‐dependent substrate interactions 54, 57. The latter study, ...

Consider Aβ(1–40): larger Aβ(1–40) substrate, for which the “competition with hippuryl‐L‐histidyl‐ L‐leucine” value is “did not out‐compete”.
